Our source for the melting point and IC50 values is patent publication US6384080B1, “Anthranilic acid derivatives as inhibitors of the cGMP-phosphodiesterase” (Fujisawa Pharmaceutical Co., Ltd., priority 1998, dated 2002).

pIC50: −log10 of the molar value.

One data set deals with T1, human platelet PDE-V (Homo sapiens, UniProt O76074).
T1 construct: Human platelet cGMP-PDE was separated from other isozymes in human platelets; from tissue; host or cells: human platelets
In words: cGMP-Phosphodiesterase (PDE) assay, enzymatic inhibitory test. Type of data set: biochemical. Particulars: human platelet PDE-V; 0.1 μM [3H]-cGMP substrate, 30° C., 10 minutes; read-out: Inhibitory activity IC50. The procedure:
cGMP-Phosphodiesterase (PDE) Assay
Human platelet cGMP-PDE was separated from other isozymes in human platelets by a modification of the method of Thompson et. al. (see Cyclic Nucleotide Phosphodiesterase (PDE), in Methods of Enzymatic analysis, Vol 4, p127-234, 1984). In enzyme inhibition assays, the test compounds were dissolved in DMSO and then diluted with assay buffer (50 mM Tris-HCl, 0.077 mg/ml dithiothreitol and 10 mg/ml snake venom, 1 mM EGTA, pH 8.0), at final concentrations ranging from 10^−10 to 10^−6 M. Assays were performed at 0.1 μM substrate ([^3H]-cGMP) concentration, at 30° C. for 10 minutes using enzyme dilutions which gave 10-20% hydrolysis of substrate. Each assay was initiated by addition of substrate and terminated by addition of anion exchange resin (Dowex® 1-X8, 250 mg/mg) followed by centrifugation for 10 minutes (3000 rpm, at 4° C.). Radioactivity of supernatant (^3H-GMP) was assayed by liquid scintillation counting.

The term melting point denotes the temperature, or range, at which the solid turns liquid. Regarding `COc1ccc(CNC(=O)c2cc([N+](=O)[O-])ccc2N[C@@H]2CCC[C@H]2O)cc1OC` (relative stereo) [Example 67, N-(3,4-Dimethoxybenzyl)-2-(trans-2-hydroxycyclopentylamino)-5-nitrobenzamide], the melting point is 154 to 155 °C.

As for `CC[C@@H](CO)Nc1ccc([N+](=O)[O-])cc1C(=O)NCc1ccc2c(c1)OCO2` [2(1), (S)-2-[1-(Hydroxymethyl)propylamino]-5-nitro-N-(1,3-benzodioxol-5-ylmethyl)benzamide], the melting point was 128 to 130 °C.

In general, pIC50 refers to the IC50 on a negative log10 scale, so that one unit is a factor of ten. In turn, `O=C(NCc1ccc(-c2ccccc2)cc1)c1cc([N+](=O)[O-])ccc1N[C@H]1CC[C@@H](O)CC1` [2-(cis-4-Hydroxycyclohexylamino)-5-nitro-N-(4-phenylbenzyl)benzamide] registered a melting point of 168 to 170 °C. The pIC50 at human platelet PDE-V was over 8.00.

Take `CCCCC(CO)Nc1ccc([N+](=O)[O-])cc1C(=O)NCc1ccc2c(c1)OCO2` (stereo not shown) [2-[1-(1-Hydroxymethyl)pentylamino]-5-nitro-N-(1,3-benzodioxol-5-ylmethyl)benzamide]: the melting point lay within 112 to 115 °C. Moreover, on human platelet PDE-V, the pIC50 was over 8.00.

Compound `COc1ccc(CNC(=O)c2cc([N+](=O)[O-])ccc2N[C@H]2CC[C@@H](OC(C)=O)CC2)cc1OC` [2-[cis-4-(acetoxy)cyclohexylamino]-N-(3,4-dimethoxybenzyl)-5-nitrobenzamide] displayed a melting point of 147 to 148 °C. Besides, the pIC50 at human platelet PDE-V was over 8.00.

Consider `COc1ccc(CNC(=O)c2cc(C#N)ccc2N[C@@H](C)CO)cc1OC` [88(1), (S)-5-Cyano-N-(3,4-dimethoxybenzyl)-2-(2-hydroxy-1-methylethylamino)benzamide], for which the melting point lay within 142 to 143.5 °C.

The compound `COc1ccc(CNC(=O)c2cc(S(=O)(=O)N3CCN(C(=O)OC(C)(C)C)CC3)ccc2N[C@H]2CC[C@H](O)CC2)cc1OC` [153(1), 5-[4-(tert-Butoxycarbonyl)piperazin-1-ylsulfonyl]-N-(3,4-dimethoxybenzyl)-2-(trans-4-hydroxycyclohexylamino)benzamide] yielded a melting point of 221 to 222 °C.

On to `COc1ccc(CNC(=O)c2cc(S(=O)(=O)N3CCNCC3)ccc2N[C@H]2CC[C@H](O)CC2)cc1OC` [153(2), N-(3,4-Dimethoxybenzyl)-2-(trans-4-hydroxycyclohexylamino)-5-(piperazinosulfonyl)benzamide], for which the melting point lay in the range of 108 to 110 °C.

Regarding `COc1ccc(CNC(=O)c2cc([N+](=O)[O-])ccc2NC2CC=CCC2)cc1F` (stereo not shown) [153(3), 2-(3-cyclohexenylamino)-N-(3-fluoro-4-methoxybenzyl)-5-nitrobenzamide], the melting point was found to be 140 °C.

`C[C@H](CO)Nc1ccc([N+](=O)[O-])cc1C(=O)NCc1ccc(Oc2ccccc2)cc1` [(R)-2-(2-Hydroxy-1-methylethyl)amino-5-nitro-N-(4-phenoxybenzyl)benzamide] gave a melting point of 127 to 129 °C. The pIC50 on human platelet PDE-V was over 8.00.

The compound `Cc1ccc(CNC(=O)c2cc([N+](=O)[O-])ccc2N[C@@H](C)CO)cc1Cl` [(S)-N-(3-Chloro-4-methylbenzyl)-2-(2-hydroxy-1-methylethylamino)-5-nitrobenzamide] came in with a melting point of 178 to 179 °C. In addition, the pIC50 on human platelet PDE-V was over 8.00.

The compound `O=C(NCc1ccc2c(c1)OCO2)c1cc([N+](=O)[O-])ccc1N[C@H]1CC[C@H](O)CC1` [Example 1(1), 2-(trans-4-hydroxycyclohexylamino)-5-nitro-N-(1,3-benzodioxol-5-ylmethyl)benzamide] registered a melting point of 205 to 206 °C.

As to `C[C@H](CO)Nc1ccc([N+](=O)[O-])cc1C(=O)NCc1ccc2c(c1)OCO2` [Example 7, (R)-2-(2-Hydroxy-1-methylethylamino)-5-nitro-N-(1,3-benzodioxol-5-ylmethyl)benzamide], the melting point lay within 166 to 168 °C.

`O=C(NCc1ccccc1)c1cc([N+](=O)[O-])ccc1N[C@H]1CC[C@H](O)CC1` [Example 51, N-benzyl-2-(trans-4-hydroxycyclohexylamino)-5-nitrobenzamide] displayed a melting point of 233 to 234 °C.

As for `O=C(NCc1ccccc1)c1cc([N+](=O)[O-])ccc1NC(CO)CO` [Example 55, N-Benzyl-2-[2-hydroxy-1-(hydroxymethyl)ethylamino]-5-nitrobenzamide], the melting point fell in the range of 171 to 173 °C.

`CC[C@@H](CO)Nc1ccc([N+](=O)[O-])cc1C(=O)NCc1ccc(OC)c(OC)c1` [Example 65, (S)-N-(3,4-Dimethoxybenzyl)-2-[1-(hydroxymethyl)-propylamino]-5-nitrobenzamide] had a melting point of 168 to 169 °C.

On to `COc1ccc(CNC(=O)c2cc([N+](=O)[O-])ccc2NC(C)(C)CO)cc1OC` [Example 66, N-(3,4-Dimethoxybenzyl)-2-(2-hydroxy-1,1-dimethyl-ethylamino)-5-nitrobenzamide], for which the melting point is 161 to 162 °C.

With `COc1ccc(CNC(=O)c2cc([N+](=O)[O-])ccc2N[C@@H](C)CO)cc1OC` [Example 68, (S)-N-(3,4-Dimethoxybenzyl)-2-(2-hydroxy-1-methyl-ethylamino)-5-nitrobenzamide], the melting point was in the range of 131 to 132 °C.

On to `COc1ccc(CNC(=O)c2cc([N+](=O)[O-])ccc2NNCC(F)(F)F)cc1OC` [Example 69, N-(3,4-Dimethoxybenzyl)-5-nitro-2-[2-(2,2,2-trifluoroethyl)hydrazino]benzamide], for which the melting point fell in the range of 140 to 142 °C.

`COc1ccc(CNC(=O)c2cc([N+](=O)[O-])ccc2Nc2ccc3[nH]cnc3c2)cc1OC` [Example 80, 2-(1H-Benzimidazol-5-ylamino)-N-(3,4-dimethoxybenzyl)-5-nitrobenzamide] gave a melting point of 226.5 to 227 °C.

Compound `COc1ccc(CNC(=O)c2cc(-c3ncc[nH]3)ccc2N[C@H]2CC[C@H](O)CC2)cc1OC` [Example 90, N-(3,4-Dimethoxybenzyl)-2-(trans-4-hydroxycyclohexylamino)-5-(1H-imidazol-2-yl)benzamide] returned a melting point of 189 to 190 °C.

The compound `COc1cc(CNC(=O)c2cc([N+](=O)[O-])ccc2NC(CO)CO)ccc1Cl` [Example 91, N-(4-Chloro-3-methoxybenzyl)-2-[2-hydroxy-1-(hydroxymethyl)ethylamino]-5-nitrobenzamide] returned a melting point of 176 to 177 °C.

For the compound `COc1cc(CNC(=O)c2cc(S(C)(=O)=O)ccc2N[C@H]2CC[C@H](O)CC2)ccc1Cl` [Example 102, N-(4-Chloro-3-methoxybenzyl)-2-(trans-4-hydroxycyclohexylamino)-5-methanesulfonylbenzamide], the melting point was 234 to 235.5 °C.

Take `COc1cc(CNC(=O)c2cc([N+](=O)[O-])ccc2N[C@@H](C)CO)cc(OC)c1` [Example 107, (S)-N-(3,5-Dimethoxybenzyl)-2-(2-hydroxy-1-methylethyl)amino-5-nitrobenzamide]: the melting point fell in the range of 98 to 101 °C.

Take `Cc1ccc(CNC(=O)c2cc([N+](=O)[O-])ccc2N[C@H]2CC[C@@H](O)CC2)cc1C` [N-(3,4-Dimethylbenzyl)-2-(cis-4-hydroxycyclohexylamino)-5-nitrobenzamide]: the melting point is 157 to 158 °C. Besides, at human platelet PDE-V, the negative-log IC50 (pIC50) was over 8.00.

Take `COc1ccc(CNC(=O)c2cc([N+](=O)[O-])ccc2N[C@@H](CO)CCSC)cc1OC` [N-(3,4-dimethoxylbenzyl)-2-[(R)-1-hydroxymethyl-3-(methylthio)propylamino]-5-nitrobenzamide]: the melting point is 150 to 152 °C. Also, the pIC50 on human platelet PDE-V was over 8.00.

Take `O=C(NCc1ccc(F)c(Cl)c1)c1cc([N+](=O)[O-])ccc1NC(CO)CO` [N-(3-Chloro-4-fluorobenzyl)-2-[2-hydroxy-1-(hydroxymethyl)ethylamino]-5-nitrobenzamide]: the melting point lay in the range of 235 to 238 °C. The pIC50 at human platelet PDE-V is over 8.00.

Consider `O=C(NCc1ccccc1)c1cc([N+](=O)[O-])ccc1NC1CCC1` [N-Benzyl-2-(cyclobutylamino)-5-nitrobenzamide], for which, at human platelet PDE-V, the negative-log IC50 (pIC50) is over 8.00.

With `O=C(NCc1ccccc1)c1cc([N+](=O)[O-])ccc1NC1CCCCC1` [N-Benzyl-2-(cyclohexylamino)-5-nitrobenzamide], the pIC50 at human platelet PDE-V is over 8.00.

Regarding `O=C(NCc1ccccc1)c1cc([N+](=O)[O-])ccc1NC1CC1` [N-Benzyl-2-(cyclopropylamino)-5-nitrobenzamide], the pIC50 at human platelet PDE-V was over 8.00.

As to `O=C(NCc1nc2ccccc2[nH]1)c1cc([N+](=O)[O-])ccc1NC1CCCC1` [N-[(2-Benzimidazolyl)methyl]-2-(cyclopentylamino)-5-nitrobenzamide], the pIC50 at human platelet PDE-V is over 8.00.

Take `O=C(NCC1CCCCC1)c1cc([N+](=O)[O-])ccc1N[C@H]1CC[C@@H](O)CC1` [N-cyclohexylmethyl-2-(cis-4-hydroxycyclohexylamino)-5-nitrobenzamide]: the pIC50 at human platelet PDE-V was over 8.00.
